US20080312255A1 (ASTRAZENECA AB, priority 2007, published 2008)
In brackets after ≈: the same amount, converted by molar mass.

Legend:
[1] = biological target: S. aureus GyrB ATPase (Staphylococcus aureus, UniProt P0A0K8); assay: S. aureus GyrB ATPase inhibition (ammonium molybdate/malachite green phosphate detection); assay type: biochemical; conditions: for inhibition at 1 µM: compound concentration of 1 μM
Procedure, shortened: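 E. coli GyrA and S. aureus GyrB (250 pM each) with sheared salmon sperm DNA and 250 μM ATP, pH 7.5 Hepes buffer. Released phosphate detected by malachite green/ammonium molybdate at 650 nm; percent inhibition at 1 μM compound unless noted, normalized to 2% DMSO (0%) and EDTA (100%) controls.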

[2] = system: Streptococcus pneumoniae; assay: Bacterial susceptibility testing in liquid media (MIC); assay type: cell-based; conditions: 37° C., 24 hrs, lowest concentration reducing growth by 80% or more, read-out: MIC against Streptococcus pneumoniae
Text: Compounds may be tested for antimicrobial activity by susceptibility testing in liquid media. Compounds may be dissolved in dimethylsulfoxide and tested in 10 doubling dilutions in the susceptibility assays. The organisms used in the assay may be grown overnight on suitable agar media and then suspended in a liquid medium appropriate for the growth of the organism. The suspension can be a 0.5 McFarland and a further 1 in 10 dilution can be made into the same liquid medium to prepare the final organism suspension in 100 μL. Plates can be incubated under appropriate conditions at 37° C. for 24 hrs prior to reading. The Minimum Inhibitory Concentration (MIC) may be determined as the lowest drug concentration able to reduce growth by 80% or more.

Chain of S. aureus GyrB ATPase (P0AES4 whole entry): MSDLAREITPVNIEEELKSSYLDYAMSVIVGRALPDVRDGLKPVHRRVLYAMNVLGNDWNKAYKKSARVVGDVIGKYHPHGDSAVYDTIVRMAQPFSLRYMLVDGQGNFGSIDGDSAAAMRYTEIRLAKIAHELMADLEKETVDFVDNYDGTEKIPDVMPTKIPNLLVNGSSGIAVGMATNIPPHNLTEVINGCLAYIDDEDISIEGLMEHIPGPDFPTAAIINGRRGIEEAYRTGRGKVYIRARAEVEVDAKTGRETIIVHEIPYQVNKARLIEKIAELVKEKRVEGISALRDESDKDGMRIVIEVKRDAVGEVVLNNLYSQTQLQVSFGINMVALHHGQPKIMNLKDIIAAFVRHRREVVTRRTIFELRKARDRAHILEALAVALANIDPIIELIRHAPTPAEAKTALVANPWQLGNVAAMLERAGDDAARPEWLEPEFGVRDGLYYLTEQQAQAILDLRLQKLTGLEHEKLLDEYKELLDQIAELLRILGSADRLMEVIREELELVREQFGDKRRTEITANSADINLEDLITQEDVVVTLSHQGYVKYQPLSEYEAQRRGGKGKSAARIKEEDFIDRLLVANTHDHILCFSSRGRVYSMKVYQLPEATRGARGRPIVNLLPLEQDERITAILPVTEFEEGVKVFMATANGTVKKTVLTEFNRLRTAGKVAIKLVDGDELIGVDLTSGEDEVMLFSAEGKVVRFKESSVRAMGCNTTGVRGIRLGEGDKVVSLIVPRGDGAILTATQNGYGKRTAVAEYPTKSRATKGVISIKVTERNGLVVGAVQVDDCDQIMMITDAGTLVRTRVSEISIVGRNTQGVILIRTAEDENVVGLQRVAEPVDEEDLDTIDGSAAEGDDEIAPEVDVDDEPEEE
Chain of S. aureus GyrB ATPase (P0A0K8 whole entry): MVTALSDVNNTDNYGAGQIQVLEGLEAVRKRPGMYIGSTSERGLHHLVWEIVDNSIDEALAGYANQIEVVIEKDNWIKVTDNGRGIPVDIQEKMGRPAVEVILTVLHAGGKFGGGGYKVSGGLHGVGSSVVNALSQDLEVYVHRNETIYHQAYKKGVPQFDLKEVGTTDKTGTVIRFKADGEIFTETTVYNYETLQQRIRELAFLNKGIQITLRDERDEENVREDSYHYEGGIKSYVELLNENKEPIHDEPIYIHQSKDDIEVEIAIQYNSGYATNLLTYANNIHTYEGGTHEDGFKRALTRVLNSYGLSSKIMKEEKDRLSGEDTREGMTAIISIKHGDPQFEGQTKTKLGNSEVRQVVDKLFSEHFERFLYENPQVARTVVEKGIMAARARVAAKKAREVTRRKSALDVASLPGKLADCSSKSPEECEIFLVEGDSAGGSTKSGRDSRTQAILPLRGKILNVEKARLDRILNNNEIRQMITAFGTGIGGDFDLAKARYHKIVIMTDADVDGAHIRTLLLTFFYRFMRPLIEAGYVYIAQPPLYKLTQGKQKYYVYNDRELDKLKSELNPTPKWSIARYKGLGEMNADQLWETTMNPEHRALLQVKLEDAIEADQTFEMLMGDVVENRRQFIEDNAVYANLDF

SMILES: COc1cc(OC)nc(-c2nc(N3CC[C@@H](NC(=O)c4[nH]c(C)c(Cl)c4Cl)[C@@H](OC)C3)sc2C(=O)O)n1 [Example 11, 2-((3S,4R)-4-{[(3,4-Dichloro-5-methyl-1H-pyrrol-2-yl)carbonyl]amino}-3-methoxypiperidin-1-yl)-4-(4,6-dimethoxypyrimidin-2-yl)-1,3-thiazole-5-carboxylic acid]
- inhibition at 1 µM [1]: 92%
- MIC [2]: 0.06 µg/mL (≈ 0.105 µM)

SMILES: Cc1[nH]c(C(=O)N[C@@H]2CCN(c3nc(-c4ncccc4F)c(C(=O)O)s3)C[C@@H]2OCc2ccccc2)c(C#N)c1Cl [Example 154, 2-[(3S,4R)-3-(benzyloxy)-4-{[(4-chloro-3-cyano-5-methyl-1H-pyrrol-2-yl)carbonyl]amino}piperidin-1-yl]-4-(3-fluoropyridin-2-yl)-1,3-thiazole-5-carboxylic acid]
- inhibition at 1 µM [1]: 112%

SMILES: Cc1[nH]c(C(=O)N[C@@H]2CCN(c3nc(-c4cnccn4)c(C(=O)O)s3)C[C@@H]2OCc2ccccc2)c(C#N)c1Cl [Example 155, 2-[(3S,4R)-3-(benzyloxy)-4-{[(4-chloro-3-cyano-5-methyl-1H-pyrrol-2-yl)carbonyl]amino}piperidin-1-yl]-4-(pyrazin-2-yl)-1,3-thiazole-5-carboxylic acid]
- inhibition at 1 µM [1]: 110%

SMILES: CCCO[C@H]1CN(c2nc(-c3ncnn3C)c(C(=O)O)s2)CC[C@H]1NC(=O)c1[nH]c(C)c(Cl)c1Cl [Example 159, 2-[(3S,4R)-4-{[(3,4-dichloro-5-methyl-1H-pyrrol-2-yl)carbonyl]amino}-3-propoxypiperidin-1-yl]-4-(1-methyl-1H-1,2,4-triazol-5-yl)-1,3-thiazole-5-carboxylic acid]
- inhibition at 1 µM [1]: 31%

SMILES: CCCO[C@H]1CN(c2nc(-c3ncccc3F)c(C(=O)O)s2)CC[C@H]1NC(=O)c1[nH]c(C)c(Cl)c1Cl [Example 160, 2-[(3S,4R)-4-{[(3,4-dichloro-5-methyl-1H-pyrrol-2-yl)carbonyl]amino}-3-propoxypiperidin-1-yl]-4-(3-fluoropyridin-2-yl)-1,3-thiazole-5-carboxylic acid]
- inhibition at 1 µM [1]: 4.5%

SMILES: CCCO[C@H]1CN(c2nc(-c3cnccn3)c(C(=O)O)s2)CC[C@H]1NC(=O)c1[nH]c(C)c(Cl)c1Cl [Example 161, 2-[(3S,4R)-4-{[(3,4-dichloro-5-methyl-1H-pyrrol-2-yl)carbonyl]amino}-3-propoxypiperidin-1-yl]-4-(pyrazin-2-yl)-1,3-thiazole-5-carboxylic acid]
- inhibition at 5 µM ([1]; compound tested at a concentration of 5 μM): 14%
